The record followed here is US7407940B2, “Antimicrobial hexapeptides” (Helix BioMedix Inc., priority 2005, dated 2008).

Where a SMILES comes first, the peptide text is derived from it. Where no end group is shown, it is not given here. [ ]: non-standard residue; d: D form. The star is where a group is joined. 2Nal = N[C@@H](Cc1ccc2ccccc2c1)C(=O)O; Myristoyl = CCCCCCCCCCCCCC(=O)*; Lauroyl = CCCCCCCCCCCC(=O)*; code J = not defined here; Octanoyl = CCCCCCCC(=O)*

On the set-up of data set [1]: species or system Sprague-Dawley rats. The settings on record: rat, in vivo. The source says:
Each wound observed at each dressing change and the wound surface and tissue reaction assessed. There were 5 parameters of wound status that were checked: • i. Wound Film Security—Was the adhesive film used to cover the wound still completely adherent to the skin around the wound? • ii. Wound Surface—What was the exact visual appearance of the wound surface? • iii. Amount of Exudate—How much exudate was trapped under the film? In many cases, accumulated exudate causes the film to lose adherence and the exudates will escape. • iv. Severity of Tissue Reaction—A subjective rating of extent of tissue reaction on a scale of 1 (minimal), 2 (moderate), 3 (extensive). • v. % of Tissue Involved—In some situations, the wound surface contained denatures, friable tissue that could be wiped off with pressure applied to gauze. This test was used to better differentiate denatured tissue from viscous exudates.

Data set [2] relates to Candida albicans. The class given is cell-based. How it is done:
(§1) MICs (minimal inhibitory concentrations) were determined for the hexapeptides of interest using a slightly modified version of the NCCLS (National Committee for Clinical Laboratory Standards) broth microdilution method as described previously (Steinberg et al., AAC 41: 1738, 1997). Briefly, antimicrobial agents were prepared as 10× concentrates in the most appropriate solvent. For the hexapeptide, 0.01% acetic acid containing 0.2% bovine serum albumin as a carrier protein was used. Inocula were prepared by resuspending colonies from a BAP (please spell out this term) in medium and adjusting the suspension to match that of a 0.5 McFarland standard. The suspension was diluted into fresh medium (as recommended by NCCLS for the organism) to give 2×10^5 to 7×10^5 CFU/ml for bacteria or 2×10^3 to 7×10^3 CFU/ml for Candida. After dispensing 100 μl aliquots of the microbial suspension into each well of a 96-well polypropylene microtiter plate, 11 μl of test compound was added. The MIC was defined as the lowest concentration of drug which prevented visible turbidity after 16 to 20 hours (bacteria) or 46 to 50 hours (Candida) at 35° C.

Data set [3] relates to Staphylococcus aureus. The class given is cell-based. How it is done: as §1
The subject of data set [4] is Pseudomonas aeruginosa. The class given is cell-based. The method, boiled down: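 Modified NCCLS broth microdilution; hexapeptide prepared as 10× concentrate in 0.01% acetic acid with 0.2% BSA carrier. Inocula from 0.5 McFarland suspensions diluted to 2×10^5–7×10^5 CFU/ml (bacteria) or 2×10^3–7×10^3 CFU/ml (Candida). MIC = lowest concentration preventing visible turbidity after 16–20 h (bacteria) or 46–50 h (Candida) at 35° C.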

The test system of data set [5] is S. epidermidis ATCC12228. In words: MIC, broth microdilution, S. epidermidis. Also noted: unit not given beside the values. The class given is cell-based. The settings on record: #86: S. epidermidis ATCC12228. Here is the method:
as §1

The test system of data set [6] is Lipoteichoic acid (LTA). The data set is described as follows: LTA binding assay. The settings on record: FIG. 7. From the text: Lipoteichoic acid (LTA) is a common cell wall component of gram-positive bacteria including organisms such as S. aureus and P. acnes. The release of LTA during infection can lead to the release of mediators of the host inflammatory response which in turn can result in sepsis (septic shock). For example, when injected into animals, LTA can elicit many of the characteristic features of septic shock, including cytokine production, leukocytopenia, circulatory failure, multiple-organ dysfunction syndrome, and mortality.

In data set [7] the test system is S. aureus MRSA. The data set is described as follows: Kill kinetics in lipid (liposome) environment with or without serum. The class given is cell-based. The settings on record: peptide 0.5 mg/ml; liposomes, presence or absence of serum. From the text: Referring to FIG. 8, not only does lipidation improve the activity of hexapeptides in serum it improves activity in a lipid environment which is a mimic of the human acne lesion environment. The human sebaceous gland secretion, also called sebum, contains squalene, cholesterol, cholesterol esters, wax esters, and triglycerides in which a large […] of P. acnes appears to take advantage of this environment and hydrolyzes certain sebaceous lipids. The pre-pubertal and pubertal increase in sebum secretion is almost certainly involved in the pathogenesis of adolescent acne. The activity of SEQ ID NO: 55 was studied in this environment compared to P64(SEQ ID NO:90), a traditional cationic antimicrobial peptide. Due to the fact that most lipids are water insoluble, peptide-liposomes composed of phosphatidylcholine, phosphatidylglycerol and cholesterol in the molar ratio of 7:2:1 in saline were used and kill kinetics of the peptides were assessed in the presence or absence of serum.

The subject of data set [8] is Trychophyton rubrum. In words: MIC100 against dermatophyte Trychophyton rubrum. The class given is cell-based. The settings on record: T. rubrum; at 10 days. Here is the method:
(§2) In order to compare the activity of various antimicrobial peptides, including hexapeptide SEQ ID NO:1 (P0666), MIC were determined against the dermatophytes Trychophyton rubrum and Trychophyton mentagrophytes. The concentration of samples investigated were: 2000, 1000, 500, 250 and 125 μg/ml, respectively. The medium used was modified Sabouraud's media without agar. For a 100 mL of modified Sabouraud medium: 3 g of Sabouraud's dextrose broth (Difco) was mixed into 100 mL of deionized water. The pH was adjusted to 7.0 with 0.1 N NaOH. The solution was autoclaved for thirty minutes. 940 μL of medium was poured into sterile 20 mL test tubes with plastic caps and was allowed to cool.
(§3) 50 μL of […] was added to each 20 mL test tube to make the required concentration. A control tube was composed of 50 μL of saline without sample. For the MIC experiments,
(§4) 10 μL of organism suspended in saline was added to the each 20 mL test tube and vortexed slightly. Each of the test tubes was covered in parafilm and maintained on a shaker at 27° C. at a speed of approximately 100 rpm.
(§5) The growth/inhibition of the organism was observed on a daily basis. […] The Minimum Inhibition Concentration (MIC100) for compounds F1 to F10 against fungus Trychophyton rubrum and Trychophyton mentagrophytes at 10 days.

In data set [9] the test system is Trychophyton mentagrophytes. In words: MIC100 against dermatophyte Trychophyton mentagrophytes. The class given is cell-based. The settings on record: T. mentagrophytes; at 10 days. Here is the method: as §2, §3, §4, §5

In the case of `CC(C)C[C@H](NC(=O)[C@H](C)NC(=O)[C@H](CC(C)C)NC(=O)[C@H](CCCCN)NC(=O)[C@H](C)NC(=O)[C@H](CC(C)C)NC(=O)[C@H](CCCCN)NC(=O)[C@H](CCCCN)NC(=O)[C@H](C)NC(=O)[C@H](CC(C)C)NC(=O)[C@H](CCCCN)NC(=O)[C@H](C)NC(=O)[C@H](CC(C)C)NC(=O)[C@H](CCCCN)NC(=O)[C@H](CCCCN)NC(=O)[C@H](C)NC(=O)[C@@H](N)C(C)C)C(N)=O` [SEQ ID NO: 88, VAKKLAKLAKKLAKLAL-NH2], in data set [1], the Amount of exudate entry was “S/y” and the “tissue reaction (in words)” value was “mild to moderate”.

In the case of `CCCCCCCCCCCCCC(=O)N[C@@H](CCCCN)C(=O)N[C@@H](Cc1ccccc1)C(=O)N[C@@H](CCCCN)C(=O)N[C@@H](Cc1c[nH]c2ccccc12)C(=O)N1CCC[C@H]1C(=O)N[C@@H](Cc1c[nH]c2ccccc12)C(N)=O` [compound 77] (Myristoyl-KFKWPW-NH2), the “Minimal Inhibitory Concentrations (Mics)” value in [2] is reported as 4-8 Mg/Ml; in [3] it was 8-16 Mg/Ml; in [4] it was 64-128 Mg/Ml.

In [1], `CCCCCCCC(=O)N[C@@H](CCCCN)C(=O)N[C@@H](Cc1ccccc1)C(=O)N[C@@H](CCCCN)C(=O)N[C@@H](Cc1c[nH]c2ccccc12)C(=O)N1CCC[C@H]1C(=O)N[C@@H](Cc1c[nH]c2ccccc12)C(N)=O` [SEQ ID NO: 55 (P-1032)] (Octanoyl-KFKWPW-NH2) returned a Tissue reaction severity of 1.

For “KWKWJW-NH2 (KWKW[code J]W-NH2; reading uncertain; also: printed as KWKWJW-NH2) [SEQ ID NO: 60]”, the MIC in data set [5] is listed as >128.

For “OCT-KWKWFW-NH2 (Octanoyl-KWKWFW-NH2; SMILES CCCCCCCC(=O)N[C@@H](CCCCN)C(=O)N[C@@H](Cc1c[nH]c2ccccc12)C(=O)N[C@@H](CCCCN)C(=O)N[C@@H](Cc1c[nH]c2ccccc12)C(=O)N[C@@H](Cc1ccccc1)C(=O)N[C@@H](Cc1c[nH]c2ccccc12)C(N)=O) [SEQ ID NO: 56]”, the MIC in [5] was determined as 4.

In the case of “SEQ ID NO:72 (Lauroyl-KFKWPW-NH2; SMILES CCCCCCCCCCCC(=O)N[C@@H](CCCCN)C(=O)N[C@@H](Cc1ccccc1)C(=O)N[C@@H](CCCCN)C(=O)N[C@@H](Cc1c[nH]c2ccccc12)C(=O)N1CCC[C@H]1C(=O)N[C@@H](Cc1c[nH]c2ccccc12)C(N)=O)”, the “LTA binding (in words)” value in data set [6] is on record as “binds LTA to the same degree as a typical highly charged alpha-helical amphipathic peptide”.

As to FAKALKALLKALKAL-NH2 [SEQ ID NO: 90], the “kill kinetics in lipid environment (in words)” value in data set [7] was “shown to be effective”. The values for the MIC100 in [8] and in data set [9] were 1000 µg/mL and 500 µg/mL, respectively.

With “SEQ ID NO:83 (Lauroyl-[dK][dF][dK][dW][dP][dW]-NH2; SMILES CCCCCCCCCCCC(=O)N[C@H](CCCCN)C(=O)N[C@H](Cc1ccccc1)C(=O)N[C@H](CCCCN)C(=O)N[C@H](Cc1c[nH]c2ccccc12)C(=O)N1CCC[C@@H]1C(=O)N[C@H](Cc1c[nH]c2ccccc12)C(N)=O)”, in [6], the “LTA binding (in words)” value is “fail to bind LTA”.

Take H-KWKWFW-NH2 [compound 3]: the “Minimal Inhibitory Concentrations (Mics)” value in data set [2] is 64-64 Mg/Ml; in data set [3], 32-64 Mg/Ml.

In the case of “KWKWZW-NH2 (KWKW[2Nal]W-NH2) [SEQ ID NO: 63]”, in data set [5], the MIC is reported as 2.
